A melting point compilation (Tetko et al.; mined from patent text by program, amines drawn as free bases though some values may be those of a salt)

SMILES | melting point [°C]
COC(=O)C=C1NCC(c2ccccc2)OC1=O (configuration not stated) | 125 to 126
CCCCCCCCCCCC/C=C/c1ccc2c(c1)OCO2 | 34 to 36
Cc1ccn(-c2ccc(Oc3ccc(F)cc3)cc2)n1 | 80 to 81
c1ccc2sc3cc4oc5ccccc5sc4cc3oc2c1 | 223
Oc1ccnc2ccc3nc[nH]c3c12 | 366 to 368
CSc1cc(C)nc(SC)c1NC(=O)CCCCCCSc1nc2cccc(C(F)(F)F)c2o1 | 129 to 131
CN1CCN(c2cc3c(cc2F)c(=O)c(C(=O)O)cn3CCF)CC1 | 256 to 258
c1ccc(COc2ccc(-c3cc(NC(Cc4ccccc4)c4nnn[nH]4)ncn3)cc2)cc1 (configuration not stated) | 150
COC(=O)C1(O)CCCC(=O)C1N=Nc1ccccc1 (configuration not stated) | 144
CCCc1nn(-c2ccc(C(F)(F)F)cn2)cc1CCCOc1nn(C)cc1CC(=O)O | 119 to 120
CCOC(=O)CN1CCN(c2cc3c(cc2F)c(=O)c(C(=O)O)cn3C2CC2)CC1 | 192 to 194
O=C(CNc1ccccc1)c1ccccc1 | 97 to 99
COC(=O)c1cc(S(N)(=O)=O)c(Br)cc1C | 198 to 200
O=C1NC(=O)c2c1cc1ccc3c(c1c2-c1ccc(C(F)(F)F)cc1)OCO3 | 304 to 306
Cc1ccc2c(-c3ccc(F)cc3)nc(=O)n(C(C)C)c2c1 | 172 to 174
Cc1nc(-c2ccccc2)nc(OCC(=O)N(CC2CC2)c2ccccc2)c1C | 119 to 121
CCOc1cc2c(O)cc(C)nc2nc1C | 281 to 284
Cn1ccnc1Sc1ccc(Nc2c(C#N)cnc3cc(/C=C/CCN4CCCC4)ccc23)cc1Cl | 185 to 191
COc1cc(Cl)cc(Cn2c(=O)cc(C(F)(F)F)n(C)c2=O)c1Cl | 117 to 123
CCCc1cn(C)c2c(=O)[nH]c(-c3cc(S(=O)(=O)N4CCN(CCCOC(C)=O)CC4)ccc3OCC)nc12 | 157 to 158
CNC(=O)C(NC(=O)c1cn(C)nc1C(F)(F)F)C(COC(C)=O)c1ccccc1 (configuration not stated) | 175
O=C(CS)N[C@@H](Cc1c[nH]cn1)C(=O)O | 198 to 200
COC(=O)CCCCCCC1C(=O)CCN1C(=O)c1ccc(-c2ccccc2)cc1 (configuration not stated) | 90 to 92
COc1cc2c(c(OC(C)=O)c1)C1CCC3(C)C(OC(=O)C(F)(F)F)CCC3C1CC2 (configuration not stated) | 137 to 138

SMILES | melting point [°C]
COc1ccc(-c2c(C#N)nn(-c3c(Cl)cc(C(F)(F)F)cc3Cl)c2N)cc1OC | 250
COC(=O)c1c(F)cc(OCCNC(=O)C2Cc3ccccc3N2S(=O)(=O)c2ccc(-c3ccc(F)cc3C)cc2)cc1F (configuration not stated) | 65 to 72
CC(=O)OC1CSC(Oc2cccc(Cl)n2)C(OC(C)=O)C1OC(C)=O (configuration not stated) | 127
O=C1C[N+]([O-])=C(c2ccccc2F)c2cc(Cl)ccc2N1CC(O)CO (configuration not stated) | 165 to 166
CCCCOc1ccc(S(=O)(=O)OC2CN(S(=O)(=O)c3ccc(OCCCC)cc3)C2)cc1 | 90 to 93
CC(C)(C1OCCO1)C(O)(COc1cccc2ccccc12)Cn1ccnc1 (configuration not stated) | 126
O=C(Nc1cccnn1)N1CCN(c2ccnc(-c3cccc(F)c3F)n2)CC1 | 235 to 236
COc1ccc(CCN2CCC(C(O)c3nc4ccccc4s3)CC2)cc1 (configuration not stated) | 127 to 129
O=C1CCC(CCc2ccc(-c3ccccc3)cc2)N1O (configuration not stated) | 192 to 194
CC(C)Cn1cccc1C(N)=S | 126 to 128
COc1cc(OC)nc(Oc2ccccc2C(=O)NS(=O)(=O)C(C)C)n1 | 128 to 130
O=C1Nc2ccc(Cl)cc2C(c2ccccc2)N1C1CCN(Cc2ccccc2)CC1 (configuration not stated) | > 230
COc1ccnc(N2CCN(Cc3ccc(C(C)(C)NC(C)=O)cc3)CC2)n1 | 160 to 162
CC1CC(=O)NN=C1c1ccc(-n2cnc3c2CCCC3)cc1 (configuration not stated) | 199 to 200
N=C(N)Nc1ccc(C(=O)Nc2cccc3cccnc23)cc1 | 271 to 273
CN1C(=O)c2cc(Nc3ccccc3)c(Nc3ccccc3)cc2C1=O | 195 to 196
CCCC(CC(CC)SC)CC1OC(n2cnc3c(N)ncnc32)C(O)C1O (configuration not stated) | 78 to 80
CCOC(=O)CC1CN(c2c(C)cccc2C)C(=N)N1c1c(C)cccc1C (configuration not stated) | 142 to 144
Cc1cc(Cl)cnc1NCCCNc1ncc(Cc2ccncc2)c(=O)[nH]1 | 90 to 92
O=C(Nc1cc(CO)cc(Nc2c3ccccc3nc3ccccc23)c1)Oc1ccc(N(CCCl)CCCl)cc1 | 241 to 242
CC(Cc1ccccc1)(NC(=O)OC1CCCCc2ccccc21)C(=O)NCCCCCCCCC(N)=O (configuration not stated) | 98 to 100
COc1ccc(C(NCC(=O)Nc2c(C(C)C)cccc2C(C)C)c2ccc(OC)cc2)cc1 | 84 to 85
O=C1NC(=O)C(=Cc2ccc(C(=O)CCc3ccccc3)nc2)S1 | > 250
O=C1C(c2ccccc2)=C(c2ccccc2)C(=O)N1CCc1cccc(F)c1 | 129 to 130

SMILES | melting point [°C]
CC1Cc2ccccc2C(O)(C2CCN(C)CC2)c2ccsc21 (configuration not stated) | 177 to 178
CCC1CC(=S)N(c2ccc3oc(=O)c(N4C(=O)C(CC)CC4=S)cc3c2)C1=O (configuration not stated) | 128 to 131
CSc1nnc(-c2cc(C(C)(C)C)c(O)c(C(C)(C)C)c2)s1 | 122
CC(C)(Cc1ccccc1)C(=O)Cn1cncn1 | 79
CCCOC1CCCC(C2NC(=O)C2C(C)O[Si](C)(C)C(C)(C)C)C1O (configuration not stated) | 119 to 121
O=C(NO)c1ccc(C(=O)NOCc2cccc3ccccc23)cc1 | 192 to 194
COc1cc2nc(S(=O)Cc3nccc(N4CCOCC4)c3F)[nH]c2cc1OC (configuration not stated) | 213 to 215
COc1cc(Nc2c(C#N)cnc3cc(-c4ccc(CNCCS(=O)(=O)c5ccccc5)o4)ccc23)c(Cl)cc1Cl | 123 to 128
CCCCc1nc(C(C)(C)O)c(C#N)[nH]1 | 171 to 172
CCCc1c(OCCCOc2cccc(NC(=O)C(=O)OCC)c2)ccc(C(C)=O)c1O | 52 to 57
CCOCc1nc2nc(O)cnc2c(=O)[nH]1 | 255 to 256
COc1c(C(C)(C)C)cc(SC)cc1C(C)(C)C | 50 to 52
N#Cc1c(N2CCN(C(=O)c3cccs3)CC2)c2ccccc2n(-c2ccccc2)c1=O | 289
O=C(O)CN1C(=O)C(=Cc2cc(OCc3ccccc3)c(OCc3ccccc3)c(OCc3ccccc3)c2)SC1=S | 213 to 216
CN(C)CC1CCc2cc(OCc3ccc(NC(=O)Cc4ccccc4)cc3)ccc2C1 (configuration not stated) | 130 to 135
CCOC(=O)CC[C@H](NC(=O)c1ccc(C(C)=Cc2cnc3nc(N)nc(N)c3c2)cc1)C(=O)OCC | > 300
CC1(CN)CCN(c2c(F)cc3c(=O)c(C(=O)O)cn(C4CC4)c3c2Cl)C1 (configuration not stated) | 189 to 191
Fc1ccc(Cl)c2oc(CCC#Cc3ccccn3)nc12 | 102 to 103
CCOC(=O)c1cn(Cc2ccccc2OC)c2sc(-c3ccc(OC)cc3)c(CBr)c2c1=O | 200 to 201
CCCCCCCOc1cc(F)nc(N)n1 | 30 to 32
CC(C)Cn1cnc2c(NN)nc3ccccc3c21 | 202 to 205
COc1ccc(-c2c(Cl)c(CN3C(=O)CCC3=O)nc3sc4c(c23)CCNC4)cc1OC | 250 to 252

The next lines start with the values.

melting point [°C] | SMILES
183 to 185 | CC1(C)COC(=O)N1c1nc(-c2ccc(C#N)cc2)cs1
210 to 213 | COc1ccc(Cl)cc1C1C(=O)Nc2cc(C(F)(F)F)ccc21 (configuration not stated)
> 290 | O=CNNc1ccc(NC(=O)c2cccc(N=C=S)c2)cc1
62.5 to 63.5 | COc1ccc(C(=O)c2cccc(C(F)(F)F)c2)cc1
249 | N#Cc1ccc(C=CC(=O)c2ccc(O)c(CC(=O)O)c2)cc1
232 to 233 | CS(=O)(=O)c1cncc(-c2nc(=O)c3ccccc3s2)n1
105 | CCOC(=O)c1c(C)c(C(=O)CC#N)n(C)c1C
104 to 107 | CSC1=C(c2cccc3sccc23)N2CCN=C2S1
270 | COc1ccc(CN2C(=O)[C@H](NC(=O)OC(C)(C)C)[C@@H]2/C=C/C(N)=O)c(OC)c1
158 to 160 | CCN1C(=O)Cc2cc(C(=O)c3cccs3)ccc21
85 to 86 | O=C(Cl)/C=C/c1cccc(Br)c1
190 to 191 | CC(=O)c1cc(C(=O)c2ccccc2Cl)c(N)s1
138 to 140 | CC1=C(c2ccc(Cl)cc2)n2ncc(C#N)c2N(C(=O)CCl)C1
211 to 212 | N=C(N)Nc1nc(CSCCNC2=C([N+](=O)[O-])CCCN2)cs1
67 to 69 | CCCSc1ccc(Oc2ccc(Cl)c(Cl)c2)nc1C#N
153 to 156 | CC1(C)Nc2c(Cl)cccc2NC1=O

melting point [°C] | SMILES
134 to 136 | CC(C(=O)O)c1ccc2c(c1)C(=O)Cc1ccccc1C2 (configuration not stated)
156 | COc1ccc(N2CCSC2=N)c([N+](=O)[O-])c1
108 to 110 | COc1cc(NS(C)(=O)=O)c(Oc2ccccc2)cc1C(C)=O
74.4 | CC(C)(C)OC(=O)NCc1ccc(N)cc1
99.7 to 105 | CNC(=O)N(Cc1ccc(C)c(C)c1)NC(=O)OC(C)(C)C
98.5 to 99 | CSc1c2ccccc2c(C=O)c2ccccc12
136 to 137 | CCOc1cc(C)ccc1S(N)(=O)=O
110 to 112 | N#CSc1ccc(N)c([N+](=O)[O-])c1
214 to 216 | NS(=O)(=O)c1cccc2c1SCC=C2
109 to 110 | COc1ccc(S(N)(=O)=O)cc1C(O)C(C)N=[N+]=[N-] (configuration not stated)
116 | Cn1ncc(C(N)=O)c1-c1ccco1
200 to 203 | O=C1CN(C(=O)CN2CC(c3ccc(F)cc3)CC2=O)CCN1 (configuration not stated)
163 | CN1C(=O)C(C)(Cc2ccccc2)N(C)C(=O)C1=Cc1cccnc1C#N (configuration not stated)
114 to 116 | Cc1nn(CCO)c(C)c1Oc1cc(Cl)cc(C#N)c1
158 to 160 | CCOc1ccccc1COc1ccc2c(c1)C=C(C(=O)O)CCS2(=O)=O
> 300 | NC(=O)c1cc(-c2ccncc2)nnc1Cl
